Assay results: ChEMBL document CHEMBL2074177, “Antifolate resistance mediated by the multidrug resistance proteins MRP1 and MRP2” (Cancer Res, 1999)

Target: ATP-binding cassette sub-family C member 2 (Homo sapiens, UniProt Q92887)
Assay: TP_TRANSPORTER: uptake in membrane vesicle from MRP2-expressing 2008 cells
Type: functional, cell membranes

Sequence of ATP-binding cassette sub-family C member 2 (Q92887 whole entry): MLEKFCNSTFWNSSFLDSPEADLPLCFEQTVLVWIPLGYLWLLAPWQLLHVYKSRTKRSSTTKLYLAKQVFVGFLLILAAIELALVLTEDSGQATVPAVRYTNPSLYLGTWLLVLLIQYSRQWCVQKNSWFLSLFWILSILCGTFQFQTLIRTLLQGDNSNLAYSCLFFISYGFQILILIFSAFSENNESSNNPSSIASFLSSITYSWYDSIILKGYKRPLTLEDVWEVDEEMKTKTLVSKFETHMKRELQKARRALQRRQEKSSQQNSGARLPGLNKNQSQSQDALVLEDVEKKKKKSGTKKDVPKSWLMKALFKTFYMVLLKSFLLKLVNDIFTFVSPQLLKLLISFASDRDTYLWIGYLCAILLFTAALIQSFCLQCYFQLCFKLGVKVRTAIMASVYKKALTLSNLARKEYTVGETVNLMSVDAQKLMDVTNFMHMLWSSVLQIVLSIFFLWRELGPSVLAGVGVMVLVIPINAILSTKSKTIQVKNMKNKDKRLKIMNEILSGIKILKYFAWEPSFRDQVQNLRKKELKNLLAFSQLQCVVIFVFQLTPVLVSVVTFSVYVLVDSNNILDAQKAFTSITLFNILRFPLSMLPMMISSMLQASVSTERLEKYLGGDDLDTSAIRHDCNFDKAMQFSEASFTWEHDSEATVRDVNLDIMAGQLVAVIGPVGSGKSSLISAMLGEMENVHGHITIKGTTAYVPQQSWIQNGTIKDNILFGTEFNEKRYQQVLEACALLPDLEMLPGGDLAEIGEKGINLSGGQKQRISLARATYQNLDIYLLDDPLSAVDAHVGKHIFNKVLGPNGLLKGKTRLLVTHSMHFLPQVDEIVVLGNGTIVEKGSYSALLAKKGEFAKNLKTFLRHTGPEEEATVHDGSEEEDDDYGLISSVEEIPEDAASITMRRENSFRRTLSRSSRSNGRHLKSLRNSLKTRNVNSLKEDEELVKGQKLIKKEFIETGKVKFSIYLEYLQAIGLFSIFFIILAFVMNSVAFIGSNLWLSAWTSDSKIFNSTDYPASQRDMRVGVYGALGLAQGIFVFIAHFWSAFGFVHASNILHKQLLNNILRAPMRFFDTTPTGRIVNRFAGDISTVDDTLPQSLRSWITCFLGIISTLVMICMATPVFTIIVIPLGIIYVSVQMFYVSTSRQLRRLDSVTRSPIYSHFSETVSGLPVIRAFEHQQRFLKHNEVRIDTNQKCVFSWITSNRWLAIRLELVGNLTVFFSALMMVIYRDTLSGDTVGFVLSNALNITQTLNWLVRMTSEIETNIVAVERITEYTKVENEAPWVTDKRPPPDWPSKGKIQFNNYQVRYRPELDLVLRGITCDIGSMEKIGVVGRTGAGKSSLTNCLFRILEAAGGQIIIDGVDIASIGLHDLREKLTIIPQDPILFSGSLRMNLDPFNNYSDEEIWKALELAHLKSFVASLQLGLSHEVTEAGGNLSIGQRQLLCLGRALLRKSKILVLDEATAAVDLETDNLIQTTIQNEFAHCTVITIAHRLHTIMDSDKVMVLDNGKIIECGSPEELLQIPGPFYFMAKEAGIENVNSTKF

In the case of `CN(Cc1cnc2nc(N)nc(N)c2n1)c1ccc(C(=O)N[C@@H](CCC(=O)O)C(=O)O)cc1` [METHOTREXATE], the Activity is reported as “substrate [+]”.
